From patent US12583824B2 (Genzyme Corporation, priority 2019, dated 2026)

target: T1, CFTR in primary human bronchial epithelial cells from a ΔF508 homozygous CF donor (CF-HBE cells) (Homo sapiens, UniProt P13569, DEL508-508); assay: TECC24 recording analysis of CFTR-mediated transepithelial chloride transport (AUC fold over DMSO); format: cell-based; settings: 3 μM test agent, CF-HBE cells cultured 48 hours at 36.5° C.; ratio of test agent AUC of forskolin-stimulated IEQ divided by vehicle (DMSO) AUC
T1 construct: Primary human bronchial epithelial cells from a ΔF508 homozygous CF donor; host or cells: primary human bronchial epithelial cells (CF-HBE), ΔF508 homozygous donor
Protocol: Example 31: TECC24 AUC Fold Over DMSO @ 3 μM
The effects of a test agent on CFTR-mediated transepithelial chloride transport was measured using TECC24 recording analysis. Test agents were solubilized in DMSO. Solubilized test agents were mixed with incubation medium containing DMEM/F12, Ultroser G (2%; Crescent Chemical, catalog #67042), Hyclone Fetal Clone II (2%; GE Healthcare, catalog #SH30066.02), bovine brain extract (0.25%; Lonza, catalog #CC-4098), insulin (2.5 μg/mL), IL-13 (10 ng/mL), hydrocortisone (20 nM), transferrin (2.5 μg/mL), triiodothyronine (500 nM), ethanolamine (250 nM), epinephrine (1.5 μM), phosphoethanolamine (250 nM), and retinoic acid (10 nM). Primary human bronchial epithelial cells from a ΔF508 homozygous CF donor (CF-HBE cells; from University of North Carolina Cystic Fibrosis Tissue Procurement Center), grown on Transwell HTS 24-well cell culture inserts (Costar, catalog #3378), were exposed to test agents or controls dissolved in incubation medium. The CF-HBE cells were cultured at 36.5° C. for 48 hours before TECC24 recordings were performed in the presence or absence of test agent, a positive control or vehicle (DMSO).
Following incubation, the transwell cell culture inserts containing the test agent or control-treated CF-HBE cells were loaded onto a TECC24 apparatus (TECC v7 or MTECC v2; EP Design) to record the transepithelial voltage (VT) and resistance (TEER) using 4 AgCl electrodes per well configured in current-clamp mode. The apical and basolateral bath solutions both contained (in mM) 140 NaCl, 5 KCl, 2 CaCl2), 1 MgCl2, 10 Hepes, and 10 glucose (adjusted to pH 7.4 with NaOH). To inhibit basal Na+ absorption, the ENaC inhibitor benzamil (10 μM) was added to the bath. Then, the adenylate cyclase activator, forskolin (10 μM), was added to the bath to activate CFTR. The forskolin-stimulated Cl-transport was halted by addition of bumetanide (20 μM), an inhibitor of the basolateral chloride co-transporter NKCC1, to the bath to confirm that the detected signal was chloride dependent. VT and TEER recordings were digitally acquired at routine intervals using TECC or MTECC software (EP Design). VT and TEER were transformed into equivalent transepithelial Cl-current (IEQ), and the Area Under the Curve (AUC) of the IEQ time course between forskolin and bumetanide addition is generated using Excel (Microsoft). Efficacy is expressed as the ratio of the test agent AUC divided by vehicle AUC. EC50s based on AUC are generated using the non-linear regression log(agonist) vs. response function in Prism software (GraphPad) with Hill Slope fixed=1.
If a test agent increased the AUC of the forskolin-stimulated IEQ relative to vehicle in CF-HBE cells, and this increase was inhibited by bumetanide, then the test agent was considered a CFTR corrector.

T1 sequence (P13569 with tags, fused parts or gaps DEL508-508): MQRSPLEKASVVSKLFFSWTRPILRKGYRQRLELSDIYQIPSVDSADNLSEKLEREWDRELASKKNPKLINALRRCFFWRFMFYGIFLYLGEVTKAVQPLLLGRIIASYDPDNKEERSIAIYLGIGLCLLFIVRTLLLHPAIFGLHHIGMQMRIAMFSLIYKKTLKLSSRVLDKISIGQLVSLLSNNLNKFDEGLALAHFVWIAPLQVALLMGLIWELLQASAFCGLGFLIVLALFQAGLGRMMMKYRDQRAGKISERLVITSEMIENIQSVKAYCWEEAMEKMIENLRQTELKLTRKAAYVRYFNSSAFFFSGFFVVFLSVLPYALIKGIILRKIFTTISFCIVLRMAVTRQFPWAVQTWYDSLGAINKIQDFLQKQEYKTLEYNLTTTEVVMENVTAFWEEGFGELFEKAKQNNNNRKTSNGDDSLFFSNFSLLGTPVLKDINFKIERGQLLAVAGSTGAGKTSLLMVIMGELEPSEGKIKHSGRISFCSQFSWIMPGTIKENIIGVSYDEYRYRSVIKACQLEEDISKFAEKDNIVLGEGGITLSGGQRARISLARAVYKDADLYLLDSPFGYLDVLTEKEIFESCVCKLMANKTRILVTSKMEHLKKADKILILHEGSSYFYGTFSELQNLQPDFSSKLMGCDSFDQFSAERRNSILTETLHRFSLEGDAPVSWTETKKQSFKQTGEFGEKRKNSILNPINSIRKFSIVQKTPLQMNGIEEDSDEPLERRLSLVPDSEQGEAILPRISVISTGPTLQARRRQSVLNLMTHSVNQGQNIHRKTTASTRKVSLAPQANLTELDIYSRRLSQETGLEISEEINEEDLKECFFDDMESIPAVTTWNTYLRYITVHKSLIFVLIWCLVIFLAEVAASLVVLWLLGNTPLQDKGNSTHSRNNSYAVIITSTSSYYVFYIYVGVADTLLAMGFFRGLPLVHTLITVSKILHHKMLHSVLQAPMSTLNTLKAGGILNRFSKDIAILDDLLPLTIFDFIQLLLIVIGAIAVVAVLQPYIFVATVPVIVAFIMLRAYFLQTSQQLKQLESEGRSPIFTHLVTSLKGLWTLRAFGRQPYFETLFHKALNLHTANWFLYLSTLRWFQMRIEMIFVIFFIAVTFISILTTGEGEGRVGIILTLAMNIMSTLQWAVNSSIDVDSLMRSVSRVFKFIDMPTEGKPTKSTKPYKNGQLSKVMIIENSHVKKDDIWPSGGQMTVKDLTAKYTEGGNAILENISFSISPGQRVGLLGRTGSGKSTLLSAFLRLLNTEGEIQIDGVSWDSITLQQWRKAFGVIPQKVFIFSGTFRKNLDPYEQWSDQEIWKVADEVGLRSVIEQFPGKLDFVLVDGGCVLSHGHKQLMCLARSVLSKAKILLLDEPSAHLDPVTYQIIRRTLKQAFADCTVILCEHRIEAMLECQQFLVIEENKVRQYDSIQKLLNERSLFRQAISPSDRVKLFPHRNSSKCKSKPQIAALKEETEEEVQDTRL

| SMILES | TECC24 AUC vs. DMSO (@3 μM) |
| --- | --- |
| CC(C)c1ccccc1-c1nc(NS(=O)(=O)c2cccc(N)c2)ccc1-c1cccc(OCCC(C)(C)C)c1 [Example 16, 3-amino-N-(5-(3-(3,3-dimethylbutoxy)phenyl)-6-(2-isopropylphenyl)pyridin-2-yl)benzenesulfonamide] | A (“A “refers to AUC > 5) |
| CC(C)c1cc(Cl)ccc1-c1nc(NS(=O)(=O)c2ccccc2)ccc1-c1cccc(OC(F)(F)F)c1 [Example 19, N-(6-(4-chloro-2-isopropylphenyl)-5-(3-(trifluoromethoxy)phenyl)pyridin-2-yl)benzenesulfonamide] | A (“A “refers to AUC > 5) |
| Cc1cccc(C)c1-c1nc(NS(=O)(=O)c2cccc(NC3CC(C)(O)C3)c2)ccc1-c1cccc(OCC(C)(C)C(F)(F)F)c1 (stereo not shown) [Example 20] | A (“A “refers to AUC > 5) |
| CCc1ccccc1-c1nc(NS(=O)(=O)c2cccc(N3CCCC(C)(C(=O)O)C3)n2)ccc1-c1cccc(OCC(F)(F)F)c1 (stereo not shown) [Example 21, 1-[6-[[6-(2-ethylphenyl)-5-[3-(2,2,2-trifluoroethoxy)phenyl]-2-pyridyl]sulfamoyl]-2-pyridyl]-3-methyl-piperidine-3-carboxylic acid] | A (“A “refers to AUC > 5) |
| CC(C)(C)COc1cc(-c2cnc(NS(=O)(=O)c3cccnc3)nc2-c2ccc(C(F)(F)F)cc2)ccc1Cl [Example 25, N-(5-(4-chloro-3-(neopentyloxy)phenyl)-4-(4-(trifluoromethyl)phenyl)pyrimidin-2-yl)pyridine-3-sulfonamide] | C (“C” refers to AUC < 2) |
| CC(C)(C)COc1cc(-c2cnc(NS(=O)(=O)c3cccc(Cl)n3)nc2-c2ccc(C(F)(F)F)cc2)ccc1Cl [Example 26, 5-(4-chloro-3-(neopentyloxy)phenyl)-2-(((6-chloropyridin-2-yl)sulfonyl)-12-azaneyl)-4-(4-(trifluoromethyl)phenyl)pyrimidine] | C (“C” refers to AUC < 2) |

Results, then the molecule that gave them:

| TECC24 AUC vs. DMSO (@3 μM) | SMILES |
| --- | --- |
| C (“C” refers to AUC < 2) | CC(C)(C)COc1cc(-c2ccc(NS(=O)(=O)c3cccc(N)c3)nc2-c2ccc(C(F)(F)F)cc2)ccc1Cl [Example 17, 3-amino-N-(5-(4-chloro-3-(neopentyloxy)phenyl)-6-(4-(trifluoromethyl)phenyl)pyridin-2-yl)benzenesulfonamide] |
| C (“C” refers to AUC < 2) | CC(C)(C)COc1cc(-c2cnc(NS(=O)(=O)c3ccccc3)nc2-c2ccc(C(F)(F)F)cc2)ccc1Cl [Example 22, 5-(4-chloro-3-(neopentyloxy)phenyl)-2-((phenylsulfonyl)-12-azaneyl)-4-(4-(trifluoromethyl)phenyl)pyrimidine] |
| B (“B” refers to AUC between 2-5) | CC(C)(C)COc1cc(-c2cnc(NS(=O)(=O)c3cccc(N)c3)nc2-c2ccc(C(F)(F)F)cc2)ccc1Cl [Example 23] |
| C (“C” refers to AUC < 2) | CC(C)(C)COc1cc(-c2cnc(NS(=O)(=O)c3cccc(NS(C)(=O)=O)c3)nc2-c2ccc(C(F)(F)F)cc2)ccc1Cl [Example 24, N-(5-(4-chloro-3-(neopentyloxy)phenyl)-4-(4-(trifluoromethyl)phenyl)pyrimidin-2-yl)-3-(methylsulfonamido)benzenesulfonamide] |
